In ChEMBL document CHEMBL3507680, “University of Dundee, Gates Library screen for HepG2 cell viability”:

Assay: Human HepG2 cell viability assay in 384 well format
Assay type: toxicity, cell-based
Set-up: dose 125 nL, time 70.5 hour; cytotoxicity at 70.5 h: concentration not given beside the values
Conditions: HepG2 cells, read-out: Inhibition

Structure (SMILES)	cytotoxicity at 70.5 h [%]
CCc1ncc(CN2CCN(c3cc(NC4CC4)nc(N)n3)CC2)cn1	-15
COc1ccc(CN(C)c2ccc(-c3nccn3C)nn2)cc1OC	-5.32
COc1cc(Cl)cc(CN2CCCC(N3CCOCC3)C2)c1OC (stereo not given)	-5.79
CCn1c(CN(C)C)nnc1C1CCN(Cc2ccccn2)CC1	20.6
O=c1n(Cc2ccccn2)nc(C2CCNCC2)n1Cc1ccccc1	1.51
Cn1nc(CN2CCCCC(N)C2)c2c(Cl)cccc21 (stereo not given)	36.9
Cc1noc(C)c1CN1C(=O)[C@H]2CC[C@@H]1CN(Cc1ccc(Cl)cc1)C2	8.52
Cc1nc(C2CCN(C(=O)COC(C)C)CC2)cc(N2CCOCC2)n1	-8.64
COc1cc(C)ccc1C(=O)N1C[C@@H](CN(C)CCO)[C@@H](CO)C1	4.4
CCC[C@@H]1CN(C(=O)c2ccccc2C(C)=O)C[C@H]1N(C)C	7.99
CCOCCC(=O)N1CCCN(c2ccccc2C)CC1	-4.5
O=C(NCc1ccncc1)C1CN(c2nc3ccccc3s2)CCN1 (stereo not given)	-0.512
CN(C)CCNC(=O)c1ccc(OC2CCN(CC3CC3)CC2)c(Cl)c1	0.798
Cc1nc2cc(CNC(=O)C3CC(=O)N(CCN(C)C)C3)ccc2n1C (stereo not given)	-2.99
COCCN(C)C[C@@H]1CN(C(=O)C(C)(C)c2ccccc2)C[C@@H]1CO	12.6
CS(=O)(=O)NC1CCN(Cc2ccc(OCc3ccccn3)cc2)CC1	-5.51
Fc1ccccc1-c1cc(N2[C@@H]3CC[C@H]2CNC3)n2nccc2n1	-3.67
CCOc1ccccc1CC(=O)N1C[C@@H](C(=O)O)[C@H](c2ccncc2)C1	37.4
CCNC(=O)[C@@H]1C[C@@H](NC(=O)c2ccc(C)s2)CN1Cc1ccccn1	-2.7
Cc1ncsc1CCn1ccnc1-c1cc2n(n1)CCCNC2	5.55
CN(C)c1ncnc2c1CCN(S(=O)(=O)c1cccc3nsnc13)C2	-5.63
COc1cccc(Cl)c1C(C(=O)O)N1CCC(O)(c2cccnc2)CC1 (stereo not given)	-3.34

Structure (SMILES)	cytotoxicity at 70.5 h [%]
COc1c(F)cc(-c2cccc3c2OC(CN)C3)cc1F (stereo not given)	0.0982
CC(c1cn2ncsc2n1)N1Cc2ncccc2C1=O (stereo not given)	-10.3
Cc1nc[nH]c1CN1C[C@@H]2CC[C@H](C1)N(C(=O)c1cnn(C)c1)C2	7.73
CCOCCn1nc(C)cc1C(=O)N1CCCC[C@H](N(C)C)C1	-4.33
CC(C)n1ccnc1C1CCN(C(=O)c2ccccn2)CC1	-6.85
Cc1cccc(C(C(=O)NCC2(Cn3nc(C)cc3C)CC2)N(C)C)c1 (stereo not given)	-2.42
CCOC(=O)CC1(Nc2nc(C)nc3c2cnn3C)CCCCC1	-18
CCCOc1c(CNC2CCSC2)cccc1OC (stereo not given)	-11.2
Cc1cc(C2CCCN2C(=O)CN2CC3(CCNCC3)OC2=O)on1 (stereo not given)	-5.06
COc1ccc2[nH]cc(C(=O)N3CC[C@H](CO)[C@@H](O)C3)c(=O)c2c1	-6.72
Fc1cccnc1Oc1cc(F)c(CN2CCCC2)c(F)c1	-13.4
CC(C)n1cnnc1CN(C)Cc1ccoc1	-2.84
O=C1CC(C(=O)N2CCc3sccc3C2)CN1Cc1cccnc1 (stereo not given)	2.13
CC(C)[C@H](Nc1cc(-c2ccncc2)nc2ccnn12)C(N)=O	6.65
O=C(c1ccc(F)cc1F)N1C[C@H]2CC[C@@H]1CN(Cc1ccccc1)C2	-2.62
Cc1nc(CN2CCCC(CCc3ccc(F)c(F)c3)C2)c[nH]1 (stereo not given)	19.5
CCn1cc(CN2CCCC2c2nc(C(C)C)no2)cc1C#N (stereo not given)	21
COCc1noc(-c2ccc(N(C)Cc3cn(C)nc3C)nc2)n1	-5.15
Cc1ccc(C2(CN(C)Cc3c(C)nn(C)c3C)CCNCC2)nc1	19.9
CCn1ncnc1C(C)Nc1cc(C)c2ccc(SC)cc2n1 (stereo not given)	-11.1
O=C(c1ccncc1)N1C[C@@H]2CC[C@H](C1)N(C(=O)C1CCCC1)C2	2.1
CN1CCC(N(C)C[C@H]2CC[C@@H](Cc3ccc4c(cnn4C)c3)O2)CC1	-7.57

Structure (SMILES)	cytotoxicity at 70.5 h [%]
CCO[C@H]1C[C@@H](O)C12CCN(C1CCN(c3ccccc3)CC1)CC2	-5.15
O=C1CCc2cc(S(=O)(=O)NCc3cc4n(n3)CCNC4)ccc2N1	-16.4
CC(C)c1nccc(C2CC(=O)Nc3n[nH]c(C4CCC4)c32)n1 (stereo not given)	2.19
COc1cccc(N2CCN(Cc3ccc4[nH]ccc4c3)CC2=O)c1	-12.1
CCOC(=O)N1CCCC2(CCN(Cc3ccccc3C#N)C2)C1 (stereo not given)	-6.46
CSCCC(=O)N1CCCC(c2nccn2Cc2ccncc2)C1 (stereo not given)	-5.49
COc1cc2[nH]c(=O)c(CN3CCC[C@H]3CO)cc2c(OC)c1OC	14
CC(C)c1cc(C(=O)N2C[C@H]3CC[C@@H]2CN(Cc2cccnc2)C3)no1	-12.5
Cc1cc(NC2CCN(Cc3ccccn3)CC2)n2nc(C)c(C)c2n1	0.979
C(=C\c1ccc(CN2CCCC2)cn1)/c1ccccc1	6.88
O=C(NCCC1CN(Cc2cccnc2)CCO1)c1ccsc1 (stereo not given)	6.62
CC(CCc1ncnn1Cc1cccc(Cl)c1)N1CCCC1 (stereo not given)	-9.23
Cc1cc(=O)[nH]c(SC(C)C(=O)N2CCC(c3ncc[nH]3)CC2)n1 (stereo not given)	0.989
Cc1cc(-n2nc(C)nc2-c2cn(CCN)nn2)ccn1	-6.15
Cc1nc(NC2(CN3CCCCC3)CCCCC2)c2cnn(C)c2n1	-18.3
CCc1nc(C)c(CNC(=O)CCCN2CCCCC2)s1	-1.08
CC(NC(=O)c1cc(=O)n(C)c(=O)n1C)c1ccccc1-n1cccn1 (stereo not given)	4.9
CSCC(=O)N[C@H]1CC[C@H](Nc2nccc(-c3ccncc3)n2)C1	-0.057
CCc1nn(C)c(Cl)c1CN1CCN(c2ccc(C(N)=O)cn2)CC1	-8.09
CNC(=O)CC1COCCN1C(=O)C1(c2ccc(Cl)cc2)CCC1 (stereo not given)	7.35
CCSc1ncc(CN2CCN(c3ccc(C#N)cc3)C(=O)C2)cn1	-8.4
O=C(c1ccc2occc2c1)N1CCC(C(=O)O)(n2cccn2)CC1	-4.27

Structure (SMILES)	cytotoxicity at 70.5 h [%]
CN(C)CCn1ccnc1C1CCCN(c2cc(N)ncn2)C1 (stereo not given)	23.6
Cn1c(CCC(=O)N2CCC3(CCCO3)CC2)nc2cccnc21	-9.63
c1ccc(COCCN2CCc3[nH]cnc3C2c2ccco2)cc1 (stereo not given)	-4.41
Cc1ccc([C@@H]2CN(C(=O)c3ccoc3C)C[C@H]2NC(=O)C2CC2)cc1	30.5
Cc1ccc(CN2CC[C@@H](NC(=O)c3cccnc3)[C@H](O)C2)s1	-10.7
Cc1cccc(-c2ncc(CNC(C)CO)cn2)c1 (stereo not given)	27.8
CCn1c(C2CCNCC2)nn(Cc2ccc(C(=O)NC)o2)c1=O	-12.2
CCC(NC1CCN(S(C)(=O)=O)CC1)c1cccs1 (stereo not given)	-15.6
Cc1cnc(C(=O)N2CCCC(Cn3cc(CC(C)C)nn3)C2)cn1 (stereo not given)	-8.09
Cc1cnccc1CN(C)C(=O)c1ccc(Cn2cnnn2)cc1	37.3
Nc1ccc(C(=O)N2CCCC(c3nccn3Cc3cscn3)C2)cn1 (stereo not given)	-3.06
CCC(CO)N(Cc1ccccn1)C(=O)c1ccc(=O)[nH]c1 (stereo not given)	-4.96
CCn1c(CN2CCCC2)nnc1C1CCN(Cc2ccccn2)CC1	18.4
CCC[C@@H]1CN(c2ncnc3sccc23)C[C@H]1C(=O)O	-5.95
COCc1cc(N(C)Cc2cc(C(C)(C)C)n[nH]2)ncn1	-7.91
Cc1ccc(C(NC(=O)CCCN2CCCCC2)C(=O)O)cc1 (stereo not given)	-12.7
Cc1cc(C)c(Cn2cncn2)cc1CN1CC[C@H](CO)[C@@H](O)C1	6.21
COCCN1C[C@H]2CC[C@@H]1CN(C(=O)CCc1c(C)nn(C)c1C)C2	-3.68
CC(=O)c1cc(C(=O)N2CCC(CC(C)C)C2)c(=O)[nH]c1C (stereo not given)	-12.6
Cc1nc2c(c(N[C@@H](CO)C(N)=O)n1)Cc1ccccc1OC2	-9.03
CC(=O)c1cccc(CN2CC(Oc3ccccc3C)C2)c1	-3.39
Cc1cc(C)n(CCCN(CCN2CCOCC2)Cc2ccco2)n1	-4.4

Structure (SMILES)	cytotoxicity at 70.5 h [%]
CNC(=O)[C@@H]1C[C@H](n2cc(-c3ccc(CN4CC=CC4)cc3)nn2)CN1	27
O=C1CCC2(CCN(c3cccc(C(F)(F)F)n3)CC2)CN1CCO	-5.14
O=C1CCCN1C1CCCN(CCOc2ccc(F)cc2)C1 (stereo not given)	-6.91
CC(C)CN(Cc1ccsc1)C(=O)CCCn1cncn1	-0.11
CCOC(=O)C1CCCCN1Cc1c[nH]nc1-c1cc2ccccc2o1 (stereo not given)	-7.32
CN1CSC[C@H]1C(=O)N1CCC(CCc2ccccc2)CC1	-5.84
Cn1c(N2CC[C@H](O)C2)nc2cc(C(N)=O)ccc21	5.31
Cc1cc(C)c2[nH]c(=O)c(CN3CCC(O)(CN(C)C)C3)cc2c1 (stereo not given)	-15.6
Cc1nc(CCN2CCCCC2)n(-c2ccc(F)cc2)n1	16.5
CCOCCc1nc(CCc2ccccc2)n[nH]1	-6.03
Cc1ccc(C(=O)NCCC2CN(c3cnn(C)c(=O)c3)CCO2)s1 (stereo not given)	-3.44
CCc1ccc(C(=O)N2CC[C@](C)(O)[C@H](C)C2)[nH]1	-7.19
CCOC(=O)CNC(=O)N1CCOC(CCc2ccccc2)C1 (stereo not given)	15.8
CN(CCCN1CCOCC1)[C@@H]1c2ccccc2C2(CCNCC2)[C@H]1O	-7.93
Cc1cn2cc(C(=O)NC3CCCN(c4ncccn4)C3)ccc2n1 (stereo not given)	1.08
CCN1CC(CN(C)Cc2nc(-c3ccc(F)cc3)oc2C)CC1=O (stereo not given)	4.29
Cc1cc2[nH]c(=O)oc2cc1S(=O)(=O)N1CCC(N2CCCC2=O)CC1	-9.07
Cc1nonc1CC(=O)N1CCC2(CCCN(C3CCOCC3)C2=O)C1 (stereo not given)	-5.27
O=C(NN1CCCc2ccccc21)c1c[nH]c(=O)[nH]1	-7.94
COc1cccc(C(=O)N(C)C(C)c2c(C)n[nH]c2C)c1OC (stereo not given)	-5.83
CCc1nccn1CCCNc1nccc(-c2c(C)nn(C)c2C)n1	-16.7
Cc1cnccc1CN(C)Cc1c[nH]nc1-c1ccc(F)cc1F	3.5
